In patent US9682962B2, “Pyrazolyl pyrimidinamine compound and application thereof” (SHENYANG SINOCHEM AGROCHEMICALS R&D CO., LTD., priority 2013, dated 2017):

What was measured:
diamond back moth = assay: Bioactivity test against diamond back moth (airbrush spray); type: in vivo; conditions: for control against diamond back moth (mortality): after 72 h
Procedure: (§1) Compounds were dissolved in mixed solvent (acetone:methanol=1:1), and diluted to required concentration with water containing 0.1% of tween 80.
(§2) Diamond back moth, armyworm, peach aphid and carmine spider mite were used as targets and the method of spraying by airbrush was used for determination of insecticidal bioassays.
The method of spraying by airbrush: The cabbage leaves were made into plates of 2 cm diameter by use of punch. A test solution (0.5 ml) was sprayed by airbrush at the pressure of 0.7 kg/cm^2 to both sides of every plate. 10 Second instar larvae were put into the petri-dishes after the leaf disc air-dried and 3 replicates were set for each treatment. Then the insects were maintained in observation room (25° C., 60˜70% R.H.). Scores were conducted and mortalities were calculated after 72 h.

wheat powdery mildew = assay: Protectant activity in vivo (whole plant), wheat powdery mildew; conditions: protectant activity
Procedure: (§3) The method is as followed: The whole plant is used in this test. The compound is dissolved in a proper solvent to get mother solution. The proper solvent is selected from acetone, methanol, DMF and so on according to their dissolving capability to the sample. […] The testing solution is sprayed to the host plant by a special plant sprayer. The plant is inoculated with fungus after 24 hours. According to the infecting characteristic of fungus, the plant is stored in a humidity chamber and then transferred into greenhouse after infection is finished. And the other plants are placed in greenhouse directly.

[1] = system: Green peach aphids (Myzus Persicae Sulzer); assay: Bioactivity test against green peach aphid (airbrush foliar spray); type: in vivo
Procedure: as §1, §2
Method: Filter papers were put in culture dishes (Diameter=6 cm), and water was dripped on filter papers for preserving moisture. Green peach aphids (Myzus Persicae Sulzer) were maintained on cabbage. Leaves (Diameter=3 cm) of approximately 15-30 aphids were put in the culture dishes. Bioactivity tests were used the method of Airbrush Foliar Spray, pressure=10 psi (0.7 kg/cm2), spray volume=0.5 mL. The studies were conducted at […] 25±1 C in incubator cabinets with 60±5% RH. Survey the survival aphids after 48 h and calculate the death rates.

cucumber downy mildew = assay: Protectant activity in vivo (whole plant), cucumber downy mildew; conditions: for control effect against cucumber downy mildew(%): protectant activity
Procedure: as §3

cucumber anthracnose = assay: Protectant activity in vivo (whole plant), cucumber anthracnose; conditions: 400 mg/L; protectant activity
Procedure: as §3

cucumber gray mold = assay: Fungicidal activity in vitro (96-cell culture board), cucumber gray mold; type: cell-based; conditions: read-out: inhibition rate against cucumber gray mold
rice blast = assay: microbe, parasite or virus in culture; type: cell-based; conditions: for inhibition rate against rice blast: in vitro; for inhibition at 25 ppm: Pyricularia oryzae, read-out: inhibition rate against rice blast, 25 ppm, in vitro
carmine spider mite = assay: Bioactivity test against carmine spider mite (airbrush spray); type: in vivo; conditions: after 72 hrs
Procedure: as §1, §2
The method: shoots with two true leaves in pot were taken, the healthy adults of carmine spider mite were inoculated to the leaves. The adults were counted and then sprayed with airbrush at the pressure of 0.7 kg/cm^2 and at dose of 0.5 ml. 3 replicates were set for each treatment. And then they were maintained in standard observation room. Scores were conducted and mortalities were calculated after 72 hrs.

corn rust = assay: Protectant activity in vivo (whole plant), corn rust; conditions: 1.6 ppm
Procedure: as §3

[2] = Tetranychus cinnabarinus, 72 h, read-out: control against carmine spider mite (mortality)

Row | SMILES | Insecticidal activity against diamond back moth (%) (diamond back moth; 600 mg/L) | control effect against wheat powdery mildew (%) (wheat powdery mildew; 6.25 mg/L) | control effect against wheat powdery mildew (%) (wheat powdery mildew; 25 mg/L) | control effect against wheat powdery mildew (%) (wheat powdery mildew; 100 mg/L) | control effect against wheat powdery mildew (%) (wheat powdery mildew; 400 mg/L) | Insecticidal activity against peach aphid (%) ([1]; 100 mg/L) | Insecticidal activity against peach aphid (%) ([1]; 600 mg/L) | control effect against cucumber downy mildew(%) (cucumber downy mildew; 25 mg/L) | control effect against cucumber downy mildew(%) (cucumber downy mildew; 50 mg/L) | control effect against cucumber downy mildew(%) (cucumber downy mildew; 100 mg/L) | control effect against cucumber downy mildew(%) (cucumber downy mildew; 400 mg/L) | Insecticidal activity against diamond back moth (%) (diamond back moth; 10 mg/L) | Insecticidal activity against diamond back moth (%) (diamond back moth; 100 mg/L) | control against diamond back moth (mortality) (diamond back moth; 600 ppm) [%] | further results
1 | CCc1ncnc(NCc2cnn(-c3ccccc3)c2C)c1Cl [CK1, reference compound] | 43 | 0 | 40 | 60 | 100 | 0 | 91 | 20 | 95 | 100 | 100 |  |  |  | Insecticidal activity against peach aphid (%) ([1]; 10 mg/L): 0%
2 | Cc1nc(C)c(C)c(N(C)Cc2cnn(-c3ccccc3)c2)n1 [CK3, reference compound] | 0 |  |  |  | 0 | 19 | 77 | 0 | 30 | 40 | 100 |  |  |  | Insecticidal activity against peach aphid (%) ([1]; 10 mg/L): 0%; control effect against cucumber anthracnose (%) (cucumber anthracnose): 0%
3 | CCc1ncnc(NCCc2cnn(-c3ccc(Cl)cc3)c2)c1Cl [Compound 537] |  |  |  |  |  |  |  | 100 | 100 | 100 | 100 |  |  |  | control effect against cucumber downy mildew(%) (cucumber downy mildew; 12.5 mg/L): 100%; protectant activity against cucumber downy mildew in vivo (cucumber downy mildew; 6.25 ppm): 98%; inhibition at 25 ppm (cucumber gray mold): > 80%
4 | FC(F)c1ncnc(NCCc2cnn(-c3ccc(C(F)(F)F)cc3)c2)c1Cl [Compound 865] | 100 | 40 | 80 | 85 | 100 |  |  |  |  |  |  | 42 | 50 | 100 | 
5 | Cc1ncnc(NCCc2cnn(-c3ccccc3)c2)c1Cl [Compound 241] | 100 |  |  |  |  |  |  | 100 | 100 | 100 | 100 | 29 | 71 | 100 | control effect against cucumber downy mildew(%) (cucumber downy mildew; 12.5 mg/L): 65%; inhibition rate against rice blast (rice blast; 0.1 ppm): 80%; inhibition rate against rice blast (rice blast; 0.3 ppm): 80%; inhibition rate against rice blast (rice blast; 0.9 ppm): 100%
6 | CCc1ncnc(NCc2cnn(-c3ccccc3)c2C(F)(F)F)c1Cl [CK2, reference compound] | 20 | 0 | 20 | 50 | 100 | 55 | 100 | 20 | 75 | 100 | 100 |  |  |  | Insecticidal activity against peach aphid (%) ([1]; 10 mg/L): 0%
7 | FC(F)c1ncnc(NCCc2cnn(-c3ccccc3)c2)c1Cl [Compound 797] | 100 | 60 | 100 | 100 | 100 |  |  |  |  |  |  | 65 | 85 | 100 | control against diamond back moth (mortality) (diamond back moth; 100 ppm): 85%
8 | Cc1nc(Cl)cc(N(C)Cc2c(C)nn(-c3ccccc3)c2C)n1 [CK5, reference compound] | 0 |  |  |  | 0 | 22 | 100 |  |  |  | 85 |  |  |  | Insecticidal activity against peach aphid (%) ([1]; 10 mg/L): 0%; control effect against cucumber anthracnose (%) (cucumber anthracnose): 0%
9 | CCc1ncnc(NCCc2cnn(-c3ccc(Cl)cc3)c2)c1Cl.Cl [Compound 10932] | 100 |  |  |  |  |  |  |  |  |  |  | 25 | 50 | 100 | inhibition at 25 ppm (rice blast): > 80%; mortality at 600 ppm (carmine spider mite; [2]): > 80%
10 | Cc1nc(C)c(Cl)c(NCCc2cnn(-c3ccc(Cl)cc3Cl)c2)n1 [Compound 1373] |  |  |  |  |  |  |  | 100 | 100 | 100 | 100 |  |  |  | control effect against cucumber downy mildew(%) (cucumber downy mildew; 12.5 mg/L): 100%; protectant activity against cucumber downy mildew in vivo (cucumber downy mildew; 3.125 ppm): 85%; protectant activity against cucumber downy mildew in vivo (cucumber downy mildew; 6.25 ppm): 95%; inhibition at 25 ppm (rice blast): > 80%; mortality at 600 ppm (carmine spider mite; [2]): > 80%
11 | CCc1ncnc(NCCc2cnn(Cc3ccc(Cl)cc3)c2)c1Cl [Compound 5657] |  |  |  |  |  |  |  |  |  |  |  |  |  |  | inhibition at 25 ppm (rice blast): > 80%; melting point: 109.9 °C; inhibition at 25 ppm (cucumber gray mold): > 80%
12 | FC(F)c1ncnc(NCCc2cnn(-c3ccc(Cl)cc3Cl)c2)c1Cl [Compound 817] | 100 | 100 | 100 | 100 | 100 | 100 | 100 |  |  |  |  | 21 | 70 | 100 | protectant activity against corn rust in vivo (corn rust): 70%; control against carmine spider mite (mortality) (carmine spider mite; 10 ppm): 72%
13 | CCc1ncnc(NCCc2cnn(C(C)(C)C)c2)c1Cl [Compound 23] |  |  |  | 98 | 100 | 94 | 100 |  |  |  |  |  |  |  | mortality at 100 ppm (carmine spider mite; Tetranychus cinnabarinus, 72 h, 100 ppm, read-out: control against carmine spider mite (mortality)): > 80%; mortality at 600 ppm (carmine spider mite; [2]): > 80%
14 | Cc1cc(N(C)Cc2cnn(-c3ccccc3)c2)nc(C(C)C)n1 [CK4, reference compound] | 0 |  |  |  | 0 |  | 0 | 0 | 40 | 50 | 100 |  |  |  | control effect against cucumber anthracnose (%) (cucumber anthracnose): 0%
